Measurements published in US3941882A, “Rodenticidal imidazo-pyridines” (priority 1974, dated 1976).
Values joined by “and” are separate entries in the source; they are usually repeats but may differ in a detail not shown here. Identical values can stand only once.

Experiments:
prothrombin time = assay: Prothrombin time in male rats (Tables III and IV); assay type: in vivo, rats (Harlan albino strain); conditions: five days, group of 5 rats
Procedure: Representative compounds were evaluated for prothrombin time in standard laboratory male rats (Harlan albino strain) of weanling age. A standard laboratory animal diet was fed to one group of 5 rats to serve as a control; other groups of 5 rats received modified diets, each diet being the standard laboratory animal diet modified by the incorporation therein of 0.08 percent of the respective compound. Feeding was continued for five days, at which time a blood sample was taken from each rat and analyzed for prothrombin time. The analytical method was that of A. J. Quick, "The Determination of Prothrombin," 190 Am. J. Med. Sci. 501 (1935): and it was performed on the "Electra 600", a machine available from the Medical Laboratory Automation, Inc. The results are reported in Table III.
Additional evaluations of the effect of representative compounds of prothrombin time were conducted. The procedures were the same as those reported in Examples 30-33 except that the concentration of the respective compound was 0.02 percent.

[1] = system: coagulation (prothrombin time, activated partial thromboplastin, thrombin clotting time, fibrinogen); assay: Coagulation studies in dogs: clotting times and fibrinogen (Table V); assay type: in vivo, dogs (beagles); conditions: for Activated Partial Thromboplastin Time / Fibrinogen Levels / Prothrombin Time / Thrombin Clotting Time: 40 mg./kg. oral on each of 3 successive days, fourth day, per dog
Procedure: (§1) Each of 1-methoxy-6-chloro-2-trifluoromethyl-1H-imidazo-(4,5-b)pyridine and 1-hydroxy-6-chloro-2-trifluoromethyl-1H-imidazo(4,5-b)pyridine was evaluated in coagulation studies in dogs (beagles weighing about 10 kilograms each). Two dogs were employed with each compound, one female and one male.
In the first part of the evaluation, a blood sample was taken from each dog prior to any treatment with the respective compound. The sample was citrated and centrifuged for 10-15 minutes to segregate the plasma, which was separated and quick frozen. The dogs were then treated: each dog received 40 mg./kg. of the respective compound on each of 3 successive days; administration was by the oral route. On the fourth day, blood samples were again taken and processed as described above. Throughout the test, the dogs were provided with adequate food and water and otherwise maintained under good conditions. The samples were subsequently thawed and analyzed for prothrombin time activated partial thromboplastin, thrombin clotting time, and fibrinogen levels. The first three analyses were conducted on a "Bioquest Fibrometer", produced by Baltimore Biological Division of Becton and Dickinson at Cockeysville, Maryland 21030, Fibrinogen levels were determined by the method of H. O. Bang, 9 Scand. J. Clin. Lab. Inves. 205 (1957).

Prothrombin (II) = assay: Coagulation factor concentration in dogs, factor II (Table VI); assay type: in vivo, dogs (beagles); conditions: 40 mg./kg. oral x 3 days; per dog
Procedure: as §1
(§2) In the second part of the evaluation, a sample was taken from each of the same four dogs prior to any treatment (at the same time as the initial sample for the first part of the evaluation), and the samples were pooled and evaluated for the concentration of individual clotting factors, to serve as a control. Following the treatment described above, a sample was again taken from each dog and individually analyzed in the same manner. The control figure was considered as 100 percent and the scores for the treated dogs were reported as percent of the control figure. Analyses were by the following methods:
Ii f. koller et al., 6 Acta Haem. 1 (1951).

Ac Globulin (V) = assay: Coagulation factor concentration in dogs, factor V (Table VI); assay type: in vivo, dogs (beagles); conditions: 40 mg./kg. oral x 3 days; per dog
Procedure: as §1
as §2, with “figure.” for “figure. Analyses were by the following methods:”

Proconvertin (VII) = assay: Coagulation factor concentration in dogs, factor VII (Table VI); assay type: in vivo, dogs (beagles); conditions: 40 mg./kg. oral x 3 days; per dog
Procedure: as §1, §2
Vii f. bachman et al., 1 Thrombosis Diathes. Haemorrh. 169 (1957)

AHG (VIII) = assay: Coagulation factor concentration in dogs, factor VIII (Table VI); assay type: in vivo, dogs (beagles); conditions: 40 mg./kg. oral x 3 days; per dog
Procedure: as §1, §2
Viii r. d. langdell et al., 41 J. Lab. Clin. Med. 637 (1953).

PTC (IX) = assay: Coagulation factor concentration in dogs, factor IX (Table VI); assay type: in vivo, dogs (beagles); conditions: 40 mg./kg. oral x 3 days; per dog
Procedure: as §1, §2
Ix w. f. stapp, 10 Scand. J. Clin. Lab. Inves. 169 l (1958).

Stuart Factor (X) = assay: Coagulation factor concentration in dogs, factor X (Table VI); assay type: in vivo, dogs (beagles); conditions: 40 mg./kg. oral x 3 days; per dog
Procedure: as §1
as §2, with “figure.” for “figure. Analyses were by the following methods:”

PTA (XI) = assay: Coagulation factor concentration in dogs, factor XI (Table VI); assay type: in vivo, dogs (beagles); conditions: 40 mg./kg. oral x 3 days; per dog
Procedure: as §1, §2
Xi s. i. rapaport, 57 J. Lab. Clin. Med. 771 (1961).

Hageman Factor (XII) = assay: Coagulation factor concentration in dogs, factor XII (Table VI); assay type: in vivo, dogs (beagles); conditions: 40 mg./kg. oral x 3 days; per dog
Procedure: as §1, §2
Xii o. d. ratnoff in Thrombosis and Bleading Disorders, ed. by N. U. Bang et al. (G. Thieme, and Academic Press, N.Y., 1971), pages 214-221.

Compound: COn1c(C(F)(F)F)nc2ncc(Cl)cc21 [1-methoxy-6-chloro-2-trifluoromethyl-1H-imidazo(4,5-b)pyridine]
- Deaths (prothrombin time; 0.02 percent in diet): none
- Range of Prothrombin Time (prothrombin time; 0.02 percent in diet): 19.5 to 27.5 s
- Deaths (prothrombin time; 0.08 percent in diet): none
- Range of Prothrombin Time (prothrombin time; 0.08 percent in diet): 50.1 to 109.1 s
- Activated Partial Thromboplastin Time [1]: 18.9 s and 26.2 s
- Fibrinogen Levels [1]: 236 mg% and 222 mg%
- Prothrombin Time [1]: 12.2 s and 12.9 s
- Thrombin Clotting Time [1]: 10.5 s and 13.9 s
- Prolongation of activated partial thromboplastin time (in words) ([1]; dogs, 40 mg./kg. oral x 3 days): prolongs activated partial thromboplastin time
- Coagulation Factor, Prothrombin (II) (Prothrombin (II)): 39 % of Control
- Coagulation Factor, Ac Globulin (V) (Ac Globulin (V)): 100 % of Control
- Coagulation Factor, Proconvertin (VII) (Proconvertin (VII)): 9 % of Control and 14 % of Control
- Coagulation Factor, AHG (VIII) (AHG (VIII)): 124 % of Control and 122 % of Control
- Coagulation Factor, PTC (IX) (PTC (IX)): 26 % of Control and 35 % of Control
- Coagulation Factor, Stuart Factor (X) (Stuart Factor (X)): 4 % of Control and 6 % of Control
- Coagulation Factor, PTA (XI) (PTA (XI)): 224 % of Control and 200 % of Control
- Coagulation Factor, Hageman Factor (XII) (Hageman Factor (XII)): 25 % of Control and 43 % of Control

Compound: On1c(C(F)(F)F)nc2ncc(Cl)cc21 [1-hydroxy-6-chloro-2-trifluoromethyl-1H-imidazo(4,5-b)pyridine]
- Activated Partial Thromboplastin Time [1]: 22.9 s and 16.0 s
- Fibrinogen Levels [1]: 223 mg% and 218 mg%
- Prothrombin Time [1]: 9.9 s and 6.9 s
- Thrombin Clotting Time [1]: 12.2 s and 12.0 s
- Coagulation Factor, Prothrombin (II) (Prothrombin (II)): 70 % of Control
- Coagulation Factor, Ac Globulin (V) (Ac Globulin (V)): 100 % of Control
- Coagulation Factor, Proconvertin (VII) (Proconvertin (VII)): 11 % of Control and 20 % of Control
- Coagulation Factor, AHG (VIII) (AHG (VIII)): 94 % of Control and 100 % of Control
- Coagulation Factor, PTC (IX) (PTC (IX)): 45 % of Control and 66 % of Control
- Coagulation Factor, Stuart Factor (X) (Stuart Factor (X)): 11 % of Control and 25 % of Control
- Coagulation Factor, PTA (XI) (PTA (XI)): 128 % of Control and 140 % of Control
- Coagulation Factor, Hageman Factor (XII) (Hageman Factor (XII)): 37 % of Control and 18 % of Control
